Measurements published in patent US10046001B2, “Compositions and methods for reducing intraocular pressure” (UNIVERSITY OF MIAMI, priority 2013, dated 2018).

Assays:
[1] = system: DBA/2J mice; assay: IOP lowering after topical application in DBA/2J mice; type: in vivo, mouse; conditions: DBA/2J mouse at 8 months, IOP ~35 mm of Hg, topical once daily up to 7 days
Protocol: The right eye was treated with vehicle alone and left eye treated with lipid. Control had both eyes treated with vehicle. A. In DBA/2J mice the indicated lipid in vehicle or control (vehicle only) were administered one daily at around 7.5 months of age in mice which were noted to have a IOP≥18 mm of Hg (20% increase from an average baseline of 15 mm of Hg was employed as treatment point). The average IOP recordings are shown for indicated lipids. B. A 10 picomole each of six PC (13:0/13:0; PE (18:0/18:0), Lyso-PS 18:0, PS 18:1, Sphinganine and C17S1P) were combined and applied as a topical dose once daily for up to 7 days on DBA/2J mouse eyes in 5% DMSO (vehicle). […] Transgenic myocillin mice [Tg-MYOC(Y437H)] subjected to a topical dose of indicated lipids as noted above (FIG. 5C). The IOP lowering compared to control was noted on day 4 and 6 as shown.
Intraocular pressure lowering in mouse models. The endogenous lipids lowered IOP in a DBA/2J mouse model of glaucoma (FIG. 5A). DBA/2J is the only known mouse animal where elevation of IOP occur spontaneously. Although this mouse also suffers from pigmentary dispersion, however, elevation of IOP appears not to correlate with […]. The lipids as indicated were applied as a topical dose (10 pmole in 5% DMSO as vehicle). The 5% DMSO only vehicle served as a control (FIG. 5A). […] A 10 picomole each of six PC (13:0/13:0; PE (18:0/18:0), Lyso-PS 18:0, PS 18:1, Sphinganine, and C17S1P) were combined and applied as a topical dose once daily for up to 7 days on DBA/2J mouse eyes in 5% DMSO (vehicle) (in other words, 10 picomoles of each PC was included). […] In addition to the DBA/2J model described here, these endogenous lipids lowered IOP in cochlin and connective tissue growth factor (CTGF) over-expression models. […] Thus the endogenous lipids assessed here lowered IOP in vastly different DBA/2J and MYOC(Y437H) mouse models as well as in cochlin and CTGF overexpression models covering a broad swath of four rodent glaucoma models that encompass induced as well as spontaneous IOP elevation.
Topical application of lipids and measurement of IOP: The lipids were topically applied as 1 μl drops with 10 pmole lipids. Pressure was measured with a tonolab (Colonial
Medical Supplies, N.H.) or with an assembled cannulation device, used in our laboratory. An initial assessment had utilized 10% DMSO as vehicle. However, all data reported here utilized 5% DMSO.

[2] = system: normotensive cynomolgus monkeys; assay: IOP and slit lamp examination in normotensive cynomolgus monkeys after topical lipid; type: in vivo
Protocol: Lipids were topically administered in 1 μl volume around ˜1 pm in the afternoon. The right eye was treated with vehicle alone, and the left eye was treated with lipid. The cynomolgus monkeys (n=4) were treated with […] lipid (except C17S1P which was 50 nM) for 5 days. Monkeys were subjected to slit lamp examination and IOP measurement prior to and after treatment. The IOP measured 3-6 hours post-treatment on the fifth day of treatment is depicted as solid bars. The hollow bars are control (vehicle only (5% DMSO)).
Experimental design: The IOP-reducing activity of six lipids was tested in the eyes of cynomolgus monkeys (n=4 animals for each lipid). Baseline slit lamp biomicroscopic examination (SLE) and IOP for each group of animals was measured prior to topical application of lipids. The SLE and IOP were then measured at 3-6 hours posttreatment. One eye of each monkey received topical application with the lipid suspended in vehicle (1% dimethylsulfoxide (DMSO)), and the contralateral eye was treated with vehicle only. All topical applications contained 10 picomole of lipid (except C17S1P, which was 50 nM). […] The IOP was measured using a minified Goldmann applanation tonometer.

Structure (SMILES)	lowering of IOP after elevation, short term application (FIG. 5B) [1]	IOP reduction ([2]; topical 10 picomole (C17S1P 50 nM), 5 days, IOP 3-6 hours post-treatment)	adverse side effects or toxicity ([2]; topical, slit lamp examination)
CCN[C@H]1C[C@H](C)S(=O)(=O)c2sc(S(N)(=O)=O)cc21 [Dorzolamide, reference compound]	same level of IOP reduction as Timolol	–	–
CCCCCCCCCCCCCCCCCC(=O)OC[C@@H](O)COP(=O)(O)OC[C@H](N)C(=O)O [PS18:0 Lyso-PS]	–	reduced IOP significantly	without additional adverse side effects or toxicity
